Assay results as given in patent US20080221074A1, “Drug Screen and Treatment Method” (priority 2006, published 2008).
pIC50: −log10 of the molar value.

Key:
[1] = system: carrageenan-λ induced pleurisy; experiment: carrageenan-λ induced lung (pleural cavity) inflammation; assay type: in vivo, CD1 male mice; settings: for number of neutrophils relative to negative control group (set at 100%): exudate 4 h after
Text: Treatment of lung inflammation. Three compounds, 3β,16α-dihydroxy-17-oxoandrostane, 3α,16β,17β-trihydroxyandrostane and 3α,16α,17α-trihydroxyandrostane were used to treat inflammation in mice essentially as described (D. Auci et al., Ann. New York Acad. Sci. 1051:730-742 2005). Five to 8 week old CD1 male mice (Charles River, Calco, Italy) were used for the study. The animals were housed in a controlled environment and provided with standard rodent chow and water. Animal care was in compliance with applicable regulations on protection of animals. Mice were allocated into one of the following groups: (1) mice treated with 2% carrageenan-k in saline (carrageenan-λ treated control group), (2) mice treated with 0.1 mg, 0.01 mg or 0.001 mg 3β,16α-dihydroxy-17-oxoandrostane by subcutaneous (s.c.) injection 24 h and 1 h before carrageenan-λ administration, (3) mice treated with 0.1 mg, 0.01 mg or 0.001 mg of 3α,16α,17α-trihydroxyandrostane by s.c. injection 24 and 1 h before carrageenan; (4) mice treated with 0.1 mg, 0.01 mg or 0.001 mg […],16β,17β-trihydroxyandrostane by s.c. injection 24 h and 1 h before carrageenan-λ administration; (5) mice treated with vehicle (0.1% carboxymethylcellulose, 0.9% saline, 2% tween 80, 0.05% phenol) s.c. 24 h and 1 h before carrageenan-λ administration; (6) mice treated with rabbit anti-mouse polyclonal anti-TNF-α antibody (200 μg) given as an intraperitoneal bolus 24 h and 1 h before carrageenan-λ administration (positive control group); and (7) sham-operated mice that were not treated with carrageenan-λ. Each group consisted of 10 mice. All treatments were given in a final volume of 100 μL. Lung (pleural cavity) inflammation was induced as follows. The mice were anaesthetised with isoflurane and a skin incision was made at the level of the left sixth intercostal space. The underlying muscle was dissected and either 0.1 mL saline (control) or 0.1 mL saline containing 2% λ-carrageenan was injected into the pleural cavity. The carrageenan-λ is a potent inducer of inflammation, which is manifested in this protocol by accumulation of fluid and neutrophils in the pleural cavity. The incision was closed with a suture and the animals were allowed to recover.
At 4 h after the injection of carrageenan-λ, the animals were euthanized by exposure to CO2. The chest was carefully opened and the pleural cavity rinsed with 1 mL of saline solution containing heparin (5 U/mL) and indomethacin (10 μg/mL). The exudate and washing solution were removed by aspiration and the total volume measured. Any exudate contaminated with blood was discarded. The amount of exudate was calculated by subtracting the injected 1 mL volume from the total pleural cavity volume that was recovered. The neutrophils in the exudate were suspended in phosphate-buffer saline and counted with an optical microscope in a Burker's chamber after Trypan Blue staining. The results were analysed by one-way ANOVA followed by a Bonferroni post-hoc test for multiple comparisons. A p-value less than 0.05 was considered significant. For statistical analysis each group was compared to the control group of mice that were challenged with carrageenan-k and received no other treatment.
The table below describes the number of neutrophils from the treated animal groups relative to untreated control animals that were exposed to carrageenan-λ, but not treated with anything else (negative control group). The neutrophil number for the negative control group was set at 100% and other groups were compared to this.

NF-κB = experiment: inhibition of NF-κB activation in NF-κB-bla THP-1 cells after LPS stimulation; assay type: cell-based, human; settings: Homo sapiens, THP-1
Text: Inhibition of NF-κB in vitro. […] Activation of NF-κB increases expression of a number of genes that mediate inflammation. This protocol used human THP-1 cells, which are human mononuclear blood cells with a monocyte phenotype. The cell line, referred to as NF-κB-bla THP-1, contained a β-lactamase reporter gene under the control of the NF-kB response element (Invitrogen, CellSensor™, product No. K1176). In this cell line, the β-lactamase reporter gene is stably integrated in the THP-1 cells. This cell line was used to detect agonists or antagonists of the NF-κB signaling pathway. These NF-κB-bla THP-1 cells respond to the presence of tumor necrosis factor alpha (TNFα) or bacterial lipopolysaccharide (LPS) by increased expression of the β-lactamase reporter gene. The level of β-lactamase enzyme activity was measured by fluorescence resonance energy transfer ratiometric detection. TNFα and LPS are both potent inflammation-inducing agents that activate NF-κB in THP1 cells. In this assay, compounds that decrease NF-κB activity, and thus β-lactamase, in the presence of TNFα or LPS are exerting an anti-inflammation activity.
The NF-κB-bla THP-1 cells were maintained by passaging or feeding as needed. […] The cells were plated at 20,000 cells/well in a 384-well Black-wall, clear bottom assay plates (Costar#3712-TC low fluorescence background plates) approximately 24 hours before adding either TNFα at 10 ng/mL or LPS at 0.2 ng/mL to activate NF-κB.
The assays were usually conducted 2-4 times for each compound and the values shown below are averages for each compound.

[2] = metabolic stability in liver microsomes, species not stated; settings: compared with androst-5-ene-3β,17β-diol
Protocol: The protocol was performed as follows. […] (2) Set up samples as follows. […] (4) The internal standard/acetonitrile solution.

[3] = system: human T lymphocytes (PBMC); experiment: human mixed lymphocyte reaction (MLR); assay type: cell-based; settings: 300 nM
Text: Human mixed lymphocyte reaction (MLR). The capacity of 3β,16α-dihydroxy-17-oxoandrostane, 3β,17β-dihydroxy-16-oxoandrostane, 17α-ethynylandrost-5-ene-3β,7β,17β-triol, and 17β-aminoandrost-5-ene-3β-ol to affect antigen specific stimulation in which human T lymphocytes respond to a specific foreign antigen (major histocompatibility complex).
Blood samples were obtained from 3 (2 males, […]) fasting, healthy human volunteers of 23-31 years old. […] The subjects were bled between 9 and 10 AM to limit possible fluctuations in the circulating levels of hormones or cytokines that could have influenced the in vitro responses of their lymphocytes. Peripheral blood mononuclear cells (PBMC) were isolated by centrifugation on Ficoll-Hypaque (density 1.077, Biochrom AG, Berlin, Germany) gradients and resuspended in culture medium (RPMI 1640 supplemented with 2 mM L-glutamine, penicillin (100 U/mL) and streptomycin ([…]) (Invitrogen s.rl., Milan, Italy). Autologous (responder) inactivated plasma was used at 10%. Five hundred thousand responder PBMC (PBMCr) and 500,000 allogeneic irradiated (30 Gy) stimulator PBMC (PBMCs) were mixed at a ratio of 1:1 in 200 μL medium and cultured for 6 days in flat bottom 96 well plates (Nunc, Roskilde, Denmark) at a concentration of 300 nM or 30 nM for each of the 4 compounds. The compounds were dissolved in ethanol and then diluted to the desired concentration with culture medium leading to a final solution containing 0.01% of ethanol. This vehicle was used as control. Controls also included PBMCr and PBMCs cultured separately. During the last 8 hours of the culture period the PBMC were pulsed with […] [^3H] thymidine (Amersham, Milan, Italy). The cells were then harvested and radioactivity incorporation measured with a beta cell counter. The mean cpm of quadruplicate wells was calculated. Proliferation of T cells was expressed as a stimulation index: SI=cpm (PMBCs xPBMCr)/cpm (PBMCr)+cpm (PBMCs). Statistical analysis was performed using the Student's t test. The cpm obtained from quadruplicate of each test compound were compared to proliferative responses obtained in control PBMCr and PBMCs cultured in the presence of the vehicle. Differences were considered significant at p<0.05.

EAE = experiment: experimental allergic encephalomyelitis (EAE), PLP 139-151; assay type: in vivo, female SJL/J mice; settings: 5 mg/kg daily oral gavage; through day 26
Text: Treatment of autoimmune neurodegeneration. Three compounds, 17β-aminoandrost-5-ene-3β-ol, 17β-dimethylaminoandrost-5-ene-3β-ol and 17β-methylaminoandrost-5-ene-3β-ol were characterized for their capacity to ameliorate experimental allergic encephalomyelitis (EAE) in mice. This demyelinating condition is extensively used as a model for multiple sclerosis in humans and for testing of new therapies for treating multiple sclerosis, e.g., B. F. Bebo Jr. et al., J. Neurosci. Res. 52:420-426 1998; R. R. Voskuhl et al., Neuroscientist, 7:258-270 2001; H. Offner et al., J. Neuroimmunol., 130:128-139 2002.
In this protocol, the compounds were administered to female SJL/J mice by oral gavage at the onset of disease symptoms. An antigen was used to initiate the EAE condition in the mice. […] Immunization with this peptide antigen initiates an autoimmune Thl mediated demyelinating disease of the central nervous system. The antigen was prepared by solid phase synthesis and purified by high-performance liquid chromatography. […] The immunization protocol was subcutaneous injection over four sites on the hind flank on day 0. After immunization. the mice were assessed daily for clinical signs of EAE using the following scale: 0=no clinical signs or symptoms; 1=limp tail; 2=mild hind limb weakness and limp tail; 3=moderate hind limb weakness and limp tail or mild ataxia; 4=severe hind limb weakness and mild forearm weakness with moderate ataxia; 5=paraplegia with no more than moderate forelimb weakness; 6=paraplegia with severe forelimb weakness or severe ataxia or moribund condition.
Mice in the vehicle control group began to show observable symptoms of EAE at about 10-11 days after immunization with the PLP antigen, which is typical for the EAE disease model. The animals were dosed daily with 17β-aminoandrost-5-ene-3β-ol, 17β-dimethylaminoandrost-5-ene-3β-ol or 17β-methylaminoandrost-5-ene-3β-ol by oral gavage beginning at day 1, which was 1 day after immunization.

[4] = system: ionizing radiation exposure; experiment: survival after lethal total body irradiation (10 Gy); assay type: in vivo, female B6D2F1 mice; settings: 0.6 mg s.c. daily for 3 days
Protocol: Treatment of ionizing radiation exposure. The effect of selected F1Cs on survival of lethally-irradiated female B6D2F1 mice were compared to control animals treated with vehicle alone. […] For Group 4, test article was administered as a 50 μL volume, by intramuscular injection for three consecutive days. The formulation was a a suspension containing 0.1% w/v carboxymethyl-cellulose, 0.9% w/v sodium chloride and 0.05% v/v phenol. The formulations were agitated to uniformly resuspend the Fl C before syringing, and injected into animals within a few minutes of drawing into the syringe to prevent settling in the syringe.
The groups of animals were treated as follows. […] The number of surviving animals is shown for day 6, 7, 12 and 21.

C[C@]12CC[C@H]3[C@@H](CCC4C[C@H](O)CC[C@@]43C)[C@@H]1C[C@@H](O)[C@H]2O (stereo partly drawn) [3α,16α,17α-trihydroxyandrostane]
number of neutrophils relative to negative control group (set at 100%) ([1]; 0.01 mg s.c. 24 h and 1 h before carrageenan-λ): 45%
number of neutrophils relative to negative control group (set at 100%) ([1]; 0.1 mg s.c. 24 h and 1 h before carrageenan-λ): 30%
pIC50 (NF-κB): < 5.00
rate of metabolism by microsomes [2]: metabolized by microsomes at a rate similar to the androst-5-ene-3β,17β-diol reference compound

C[C@]12CC[C@H]3[C@@H](CC=C4C[C@@H](O)CC[C@@]43C)[C@@H]1C[C@@H](O)[C@@H]2O [androst-5-ene-3β,16α,17β-triol]
rate of metabolism by microsomes [2]: metabolized by microsomes at a rate similar to the androst-5-ene-3β,17β-diol reference compound

C[C@]12CC[C@H]3[C@@H](CC=C4C[C@@H](O)CC[C@@]43C)[C@@H]1CC[C@@H]2N [17β-aminoandrost-5-ene-3β-ol]
immune suppression (inhibition of the MLR) [3]: moderately immune suppressive
anti-inflammation activity compared to vehicle controls ([1]; oral gavage, 1 mg and 0.1 mg (17α-ethynyl triol), 40 mg/kg (17β-amino compound)): statistically significant anti-inflammation activity
clinical severity of EAE symptoms (EAE): reduced the clinical severity
number of surviving animals (groups of 12) ([4]; day 6): 12
number of surviving animals (groups of 12) ([4]; day 7): 12
number of surviving animals (groups of 12) ([4]; day 12): 12
number of surviving animals (groups of 12) ([4]; day 21): 11
